Patent US6821991B2, “2-substituted thiazolidinones as β-3 adrenergic receptor agonists” (Wyeth, priority 2000, dated 2004)

Assays:
[1] = biological target: T1, β3-adrenergic receptor (Homo sapiens, UniProt P13945); assay: cAMP accumulation (SPA) in CHO cells transfected with human β3 adrenergic receptor; format: cell-based; settings: for EC50: CHO cells expressing human β3-AR, cAMP, 30 min, 37° C., 10^-9 M to 10^-5 M; for IA(β3): maximal response relative to maximal response of isoproterenol at 10^-5 M
T1 construct: Full length β3 AR clones (402 amino acids) containing the last 6 amino acids of hβ3-AR are prepared; expressed in transfected cells; host or cells: CHO (Chinese hamster ovary) cells
Method: The ability of compounds of this invention to treat or inhibit disorders related to insulin resistance or hyperglycemia was established with representative compounds of this invention in the following standard pharmacological test procedures, which measured the binding selectivity to the β1, β2, and β3 adrenergic receptors. Binding to the receptors was measured in Chinese Hamster ovary (CHO) cells that were transfected with adrenergic receptors.
Cloning of Human β3-AR Genomic DNA: CDNA was constructed by ligating four polymerase chain reaction (PCR) products using the following primers: an ATG-Narl fragment, sense primer 5′-[…]3′, and anti-sense primer 5′[…]3′; a Narl-Accl fragment, 5′[…]3′ as sense and 5′[…]3′ as anti-sense primer; an Accli-Styl fragment, sense primer 5′[…]3′ and anti-sense primer 5′[…]3′ and a Styl-TAG fragment, with sense primer 5′[…]3′ and anti-sense primer 5′[…]3′. The corresponding primer sequences are described in Mantzoros, C. […] The four fragments are ligated into a pUC 18 plasmid (Gibco-BRL) and sequenced.
Binding Procedure: Clones expressing receptor levels of 70 to 110 fmoles/mg protein were used in the test procedures. CHO cells were grown in 24-well tissue culture plates in Dulbecco's Modified Eagle Media with 10% fetal bovine serum, MEM non-essential amino acids, Penicillin-Streptompycin and Geneticin. On the day of test procedure, growth medium was replaced with preincubation media (Dulbecco's Modified Eagle Media) and incubated for 30 minutes at 37° C. […] Test compounds were tested over a concentration range of 10^−9 M to 10^−5 M for β3 cells and 10^−8 to 10^−4 M for β1 and β2 transfected cells. Isoproterenol (10^−5 M) was used as an internal standard for comparison of activity. Cells were incubated at 37° C. on a rocker for 30 min with the β3 cells and 15 min for β1 and β2 cells. Incubation was stopped with the addition of 0.2N HCl and neutralized with 2.5N NaOH. The plates, containing the cells and neutralized media, were stored at −20 degrees celsius until ready to test for cAMP using the SPA test kit (Amersham).
Data Analysis and Results: Data collected from the SPA test procedure were analyzed as per cent of the maximal isoproterenol response at 10^−5 M. Activity curves were plotted using the SAS statistical and graphics software.

T1 sequence (P13945 whole entry): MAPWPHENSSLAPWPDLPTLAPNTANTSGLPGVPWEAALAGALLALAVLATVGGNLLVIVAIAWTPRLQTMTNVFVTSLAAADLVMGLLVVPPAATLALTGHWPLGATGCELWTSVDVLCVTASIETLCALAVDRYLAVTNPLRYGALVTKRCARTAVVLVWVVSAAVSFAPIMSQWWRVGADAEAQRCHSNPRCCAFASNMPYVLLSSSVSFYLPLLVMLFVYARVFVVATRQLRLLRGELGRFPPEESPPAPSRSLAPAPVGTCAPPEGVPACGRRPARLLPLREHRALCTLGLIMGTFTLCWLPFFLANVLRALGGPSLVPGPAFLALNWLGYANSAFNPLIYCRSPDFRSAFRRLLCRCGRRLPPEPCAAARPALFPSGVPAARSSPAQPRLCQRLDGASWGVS

Compound | EC50 [1] | IA(β3) [1] | melting point
CNC1=NC(=O)C(=Cc2ccc(N3CCC(NC[C@H](O)COc4cccc5[nH]c(=O)[nH]c45)CC3)cc2)S1 [Example 1, 4-((2S)-2-Hydroxy-3-{1-[4-(2-methylamino-4-oxo-4H-thiazol-5-ylidenemethyl)-phenyl]-piperidin-4-ylamino}-propoxy)-1,3-dihydrobenzoimidazol-2-one] | 0.009 µM | 1.0 | > 160 °C (dec.)
O=C1N=C(NCCN2CCOCC2)SC1=Cc1ccc(N2CCC(NC[C@H](O)COc3cccc4[nH]c(=O)[nH]c34)CC2)cc1 [Example 2, 4-[(2S)-2-Hydroxy-3-(1-{4-[2-(2-morpholin-4-ylethylamino)-4-oxo-4H-thiazol-5-ylidenemethyl]-phenyl}-piperidin-4-ylamino)-propoxy]-1,3-dihydrobenzoimidazol-2-one] | 0.022 µM | 1.0 | > 140 °C (dec.)
O=C1N=C(NC2CCN(Cc3ccccc3)CC2)SC1=Cc1ccc(N2CCC(NC[C@H](O)COc3cccc4[nH]c(=O)[nH]c34)CC2)cc1 [Example 3, 4-[(2S)-3-(1-{4-[2-(1-Benzyl-piperidin-4-ylamino)-4-oxo-4H-thiazol-5-ylidenemethyl]-phenyl}-piperidin-4-ylamino)-2-hydroxy-propoxy]-1,3-dihydro-benzoimidazol-2-one] | 0.03 µM | 0.52 | > 165 °C (dec.)
O=C1N=C(NC2CCN(Cc3ccccc3)CC2)SC1=Cc1ccc(N2CCC(NC[C@H](O)COc3ccc(O)cc3)CC2)cc1 [Example 4, 2-(1-Benzyl-piperidin-4-ylamino)-5-(4-{(2S)-4-[2-hydroxy-3-(4-hydroxy-phenoxy)-propylamino]-piperidin-1-yl}-benzylidene)-thiazol-4-one] | 0.23 µM | 0.6 | > 175 °C (dec.)
CCOC(=O)CCNC1=NC(=O)C(=Cc2ccc(N3CCC(NC[C@H](O)COc4cccc5[nH]c(=O)[nH]c45)CC3)cc2)S1 [Example 8, 3-[5-(4-{4-[(2S)-2-Hydroxy-3-(2-oxo-2,3-dihydro-1H-benzoimidazol-4-yloxy)-propylamino]-piperidin-1-yl}-benzylidene)-4-oxo-4,5-dihydro-thiazol-2-ylamino]-propionic acid ethyl ester] | 0.008 µM | 0.75 | > 120 °C (dec.)
O=C(O)CCNC1=NC(=O)C(=Cc2ccc(N3CCC(NC[C@H](O)COc4cccc5[nH]c(=O)[nH]c45)CC3)cc2)S1 [Example 9, 3-[5-(4-{4-[(2S)-2-Hydroxy-3-(2-oxo-2,3-dihydro-1H-benzoimidazol-4-yloxy)-propylamino]-piperidin-1-yl}-benzylidene)-4-oxo-4,5-dihydro-thiazol-2-ylamino]-propionic acid] | 0.007 µM | 0.81 | –
O=C1N=C(NO)SC1=Cc1ccc(N2CCC(NC[C@H](O)COc3cccc4[nH]c(=O)[nH]c34)CC2)cc1 [Example 10, 4-((2S)-2-Hydroxy-3-{1-[4-(2-hydroxyamino-4-oxo-4H-thiazol-5-ylidenemethyl)-phenyl]-piperidin-4-ylamino}-propoxy)-1,3-dihydro-benzoimidazol-2-one] | 0.019 µM | 0.69 | 201 to 213 °C (dec.)
O=C1N=C(N2CCCCC2)SC1=Cc1ccc(N2CCC(NC[C@H](O)COc3ccc(O)cc3)CC2)cc1 [Example 16, 5-(4-{4-[(2S)-2-Hydroxy-3-(4-hydroxy-phenoxy)-propylamino]-piperidin-1-yl}-benzylidene)-2-piperidin-1-yl-thiazol-4-one] | 0.075 µM | 0.96 | > 85 °C (dec.)
O=C1N=C(N2CCOCC2)SC1=Cc1ccc(N2CCC(NC[C@H](O)COc3cccc4[nH]c(=O)[nH]c34)CC2)cc1 [Example 18, 4-((2S)-2-Hydroxy-3-{1-[4-(2-morpholin-4-yl-4-oxo-4H-thiazol-5-ylidenemethyl)-phenyl]-piperidin-4-ylamino}-propoxy)-1,3-dihydro-benzoimidazol-2-one] | 0.003 µM | 0.89 | > 150 °C (dec.)
CN1CCN(C2=NC(=O)C(=Cc3ccc(N4CCC(NC[C@H](O)COc5cccc6[nH]c(=O)[nH]c56)CC4)cc3)S2)CC1 [Example 19, 4-[(2S)-2-Hydroxy-3-(1-{4-[2-(4-methyl-piperazin-1-yl)-4-oxo-4H-thiazol-5-ylidenemethyl]-phenyl}-piperidin-4-ylamino)-propoxy]-1,3-dihydro-benzoimidazol-2-one] | – | – | > 150 °C (dec.)
Cl.Cl.O=C1N=C(N2CCOCC2)SC1=Cc1ccc(N2CCC(NC[C@H](O)COc3ccccc3)CC2)cc1 [Example 22, 5-{4-[4-((2S)-2-Hydroxy-3-phenoxy-propylamino)-piperidin-1-yl]-benzylidene}-2-morpholin-4-yl-thiazol-4-one dihydrochloride salt] | 0.04 µM | 0.58 | > 160 °C (dec.)
O=C1N=C(N2CCOCC2)SC1=Cc1ccc(N2CCC(NC[C@H](O)COc3ccc(O)cc3)CC2)cc1 [Example 23, 5-(4-{4-[(2S)-2-Hydroxy-3-(4-hydroxy-phenoxy)-propylamino]-piperidin-1-yl}-benzylidene)-2-morpholin-4-yl-thiazol-4-one] | 0.076 µM | 0.78 | > 100 °C (dec.)
CN1CCN(C2=NC(=O)C(=Cc3ccc(N4CCC(NC[C@H](O)COc5ccc(O)cc5)CC4)cc3)S2)CC1 [Example 24, 5-(4-{4-[(2S)-2-Hydroxy-3-(4-hydroxy-phenoxy)-propylamino]-piperidin-1-yl}-benzylidene)-2-(4-methyl-piperazin-1-yl)-thiazol-4-one] | 1.92 µM | 1.0 | > 210 °C (dec.)
O=C1N=C(N2CCOCC2)SC1=Cc1ccc(N2CCC(NC[C@H](O)c3cccc(Cl)c3)CC2)cc1 [Example 25, 5-(4-{4-[(2R)-2-(3-Chloro-phenyl)-2-hydroxy-ethylamino]-piperidin-1-yl}-benzylidene)-2-morpholin-4-yl-thiazol-4-one] | 0.45 µM | 0.51 | > 70 °C (dec.)
CN(C)CCCNC1=NC(=O)C(=Cc2ccc(N3CCC(NC[C@H](O)COc4ccccc4)CC3)cc2)S1 [Example 26, 2-(3-Dimethylamino-propylamino)-5-{4-[4-((2S)-2-hydroxy-3-phenoxy-propylamino)-piperidin-1-yl]-benzylidene}-thiazol-4-one] | 0.156 µM | 0.85 | 166 to 168 °C (dec.)
CCCCCCNC1=NC(=O)C(=Cc2ccc(N3CCC(NC[C@H](O)COc4ccccc4)CC3)cc2)S1 [Example 27, 2-Hexylamino-5-{4-[4-((2S)-2-hydroxy-3-phenoxy-propylamino)-piperidin-1-yl]-benzylidene}-thiazol-4-one] | – | 0.58 | 182 to 184 °C (dec.)
O=C(O)CC[C@H](NC1=NC(=O)C(=Cc2ccc(N3CCC(NC[C@H](O)COc4cccc5[nH]c(=O)[nH]c45)CC3)cc2)S1)C(=O)O [Example 29, (2S)-2-[5-(4-{4-[(2S)-2-Hydroxy-3-(2-oxo-2,3-dihydro-1H-benzoimidazol-4-yloxy)-propylamino]-piperidin-1-yl}-benzylidene)-4-oxo-4,5-dihydro-thiazol-2-ylamino]-pentanedioic acid] | 0.017 µM | 0.91 | > 270 °C (dec.)
Cl.O=C1N=C(N2CCCCC2)SC1=Cc1ccc(OCCNC[C@H](O)COc2ccc(O)cc2)cc1 [Example 31, 5-(4-{2-[(2S)-2-Hydroxy-3-(4-hydroxy-phenoxy)-propylamino]-ethoxy}-benzylidene)-2-piperidin-1-yl-thiazol-4-one hydrochloride salt] | 0.21 µM | 0.84 | –
Cl.O=C1N=C(N2CCCCC2)SC1=Cc1ccc(OCCNC[C@H](O)COc2ccccc2)cc1 [Example 32, 5-{4-[2-((2S)-2-Hydroxy-3-phenoxy-propylamino)-ethoxy]-benzylidene}-2-piperidin-1-yl-thiazol-4-one hydrochloride salt] | 0.088 µM | 0.33 | –
CS(=O)(=O)Nc1cc(C(O)CNCCOc2ccc(C=C3SC(N4CCCCC4)=NC3=O)cc2)ccc1O (centres unmarked) [Example 33, N-[2-Hydroxy-5-(1-hydroxy-2-{2-[4-(4-oxo-2-piperidin-1-yl-4H-thiazol-5-ylidenemethyl)-phenoxy]-ethylamino}-ethyl)-phenyl]-methanesulfonamide] | 0.002 µM | 0.86 | –
